Reference: ChEMBL document CHEMBL1201861, “Genomics of Drug Sensitity in Cancer screening data, Wellcome Trust Sanger Institute”

Tests used:
Assay in all cases: cells
NCI-H727 = format: functional, cell-based, Homo sapiens; settings: Homo sapiens, NCI-H727;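 note: growth inhibition of human NCI-H727 cells, read out with a cell viability assay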
Description: SANGER: Inhibition of human NCI-H727 cell growth in a cell viability assay.

T-24 = format: functional, cell-based, Homo sapiens; settings: Homo sapiens, T-24;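 note: growth inhibition of T-24 cells, read out with a cell viability assay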
Description: SANGER: Inhibition of human T-24 cell growth in a cell viability assay.

ETK-1 = format: functional, cell-based, Homo sapiens; settings: Homo sapiens, ETK-1;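 note: growth inhibition of human ETK-1 cells, read out with a cell viability assay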
Description: SANGER: Inhibition of human ETK-1 cell growth in a cell viability assay.

SK-PN-DW = format: functional, cell-based; settings: Homo sapiens;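 note: growth inhibition measured with a viability assay on these cells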
Description: SANGER: Inhibition of human SK-PN-DW cell growth in a cell viability assay.

EW-1 = format: functional, cell-based, Homo sapiens; settings: Homo sapiens, EW-1
Description: SANGER: Inhibition of human EW-1 cell growth in a cell viability assay.

SW684 = format: functional, cell-based, Homo sapiens; settings: Homo sapiens, SW684;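 note: growth inhibition of human SW684 cells, measured by a cell viability assay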
Description: SANGER: Inhibition of human SW684 cell growth in a cell viability assay.

RERF-LC-MS = format: functional, cell-based, Homo sapiens; settings: Homo sapiens, RERF-LC-MS;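 note: growth inhibition of human RERF-LC-MS cells, read out by a cell viability assay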
Description: SANGER: Inhibition of human RERF-LC-MS cell growth in a cell viability assay.

NOS-1 = format: functional, cell-based, Homo sapiens; settings: Homo sapiens, NOS-1;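 note: growth inhibition of the human NOS-1 cell line, read out with a cell viability assay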
Description: SANGER: Inhibition of human NOS-1 cell growth in a cell viability assay.

NUGC-3 = format: functional, cell-based, Homo sapiens; settings: Homo sapiens, NUGC-3;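 note: growth inhibition of human NUGC-3 cells, read out with a cell viability assay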
Description: SANGER: Inhibition of human NUGC-3 cell growth in a cell viability assay.

SW756 = format: functional, cell-based, Homo sapiens; settings: Homo sapiens, SW756;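 note: growth inhibition of human SW756 cells, read out with a cell viability assay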
Description: SANGER: Inhibition of human SW756 cell growth in a cell viability assay.

HuO-3N1 = format: functional, cell-based, Homo sapiens; settings: Homo sapiens, HuO-3N1;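 note: cell viability readout used to measure how strongly compounds suppress proliferation of human HuO-3N1 cells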
Description: SANGER: Inhibition of human HuO-3N1 cell growth in a cell viability assay.

ACHN = format: functional, cell-based, Homo sapiens; settings: Homo sapiens, ACHN;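 note: cell viability read-out used to gauge how strongly growth of human ACHN cells is suppressed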
Description: SANGER: Inhibition of human ACHN cell growth in a cell viability assay.

CAL-54 = format: functional, cell-based, Homo sapiens; settings: Homo sapiens, CAL-54;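 note: growth inhibition of CAL-54 cells, read out by a viability measurement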
Description: SANGER: Inhibition of human CAL-54 cell growth in a cell viability assay.

BCPAP = format: functional, cell-based, Homo sapiens; settings: Homo sapiens, BCPAP;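 note: growth inhibition of BCPAP cells, read out in a cell viability assay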
Description: SANGER: Inhibition of human BCPAP cell growth in a cell viability assay.

KU-19-19 = format: functional, cell-based, Homo sapiens; settings: Homo sapiens, KU-19-19
Description: SANGER: Inhibition of human KU-19-19 cell growth in a cell viability assay.

DEL = format: functional, cell-based; settings: Homo sapiens;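 note: growth inhibition of the human DEL cell line, read out with a cell viability assay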
Description: SANGER: Inhibition of human DEL cell growth in a cell viability assay.

EW-18 = format: functional, cell-based; settings: Homo sapiens;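 note: growth inhibition of EW-18 cells, read out by a cell viability assay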
Description: SANGER: Inhibition of human EW-18 cell growth in a cell viability assay.

MKN-45 = format: functional, cell-based, Homo sapiens; settings: Homo sapiens, MKN-45;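 note: growth inhibition of human MKN-45 cells, measured with a cell viability assay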
Description: SANGER: Inhibition of human MKN45 cell growth in a cell viability assay.

NCI-H1838 = format: functional, cell-based, Homo sapiens; settings: Homo sapiens, NCI-H1838;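 note: growth inhibition of NCI-H1838 cells, determined with a cell viability readout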
Description: SANGER: Inhibition of human NCI-H1838 cell growth in a cell viability assay.

S-117 = format: functional, cell-based, Homo sapiens; settings: Homo sapiens, S-117
Description: SANGER: Inhibition of human S-117 cell growth in a cell viability assay.

HEC-1 = format: functional, cell-based, Homo sapiens; settings: Homo sapiens, HEC-1;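 note: growth inhibition of the cell line, read out with a cell viability assay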
Description: SANGER: Inhibition of human HEC-1 cell growth in a cell viability assay.

CP50-MEL-B = format: functional, cell-based, Homo sapiens; settings: Homo sapiens, CP50-MEL-B;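 note: growth inhibition of the human cell line, measured with a cell viability read-out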
Description: SANGER: Inhibition of human CP50-MEL-B cell growth in a cell viability assay.

DOK = format: functional, cell-based, Homo sapiens; settings: Homo sapiens, DOK;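 note: cell viability assay read-out, values reflect inhibition of cell growth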
Description: SANGER: Inhibition of human DOK cell growth in a cell viability assay.

EW-24 = format: functional, cell-based; settings: Homo sapiens;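 note: human EW-24 cancer cell line, growth inhibition read out via a cell viability assay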
Description: SANGER: Inhibition of human EW-24 cell growth in a cell viability assay.

NCI-H226 = format: functional, cell-based, Homo sapiens; settings: Homo sapiens, NCI-H226;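 note: cell viability read-out used to gauge growth inhibition of the cells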
Description: SANGER: Inhibition of human NCI-H226 cell growth in a cell viability assay.

RKO = format: functional, cell-based, Homo sapiens; settings: Homo sapiens, RKO;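 note: growth inhibition of human RKO cells, read out with a cell viability assay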
Description: SANGER: Inhibition of human RKO cell growth in a cell viability assay.

T98G = format: functional, cell-based, Homo sapiens; settings: Homo sapiens, T98G;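 note: growth inhibition of T98G cells, read out by a cell viability assay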
Description: SANGER: Inhibition of human T98G cell growth in a cell viability assay.

DOHH-2 = format: functional, cell-based; settings: Homo sapiens;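 note: growth inhibition of human DOHH-2 cells, read out with a cell viability assay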
Description: SANGER: Inhibition of human DOHH-2 cell growth in a cell viability assay.

SNU-C2B = format: functional, cell-based, Homo sapiens; settings: Homo sapiens, SNU-C2B;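 note: cell viability readout used to measure compound-driven suppression of SNU-C2B cell proliferation, IC50 marking half-maximal growth inhibition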
Description: SANGER: Inhibition of human SNU-C2B cell growth in a cell viability assay.

NCI-H510A = format: functional, cell-based; settings: Homo sapiens;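 note: growth inhibition of NCI-H510A cells, read out with a cell viability assay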
Description: SANGER: Inhibition of human NCI-H510A cell growth in a cell viability assay.

GCIY = format: functional, cell-based, Homo sapiens; settings: Homo sapiens, GCIY;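 note: growth inhibition of the human GCIY cell line, read out by a cell viability assay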
Description: SANGER: Inhibition of human GCIY cell growth in a cell viability assay.

L-428 = format: functional, cell-based; settings: Homo sapiens
Description: SANGER: Inhibition of human L-428 cell growth in a cell viability assay.

SH-4 = format: functional, cell-based, Homo sapiens; settings: Homo sapiens, SH-4;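 note: growth inhibition of SH-4 cells, read out with a cell viability assay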
Description: SANGER: Inhibition of human SH-4 cell growth in a cell viability assay.

HCC2157 = format: functional, cell-based; settings: Homo sapiens;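 note: growth inhibition of the cancer cell line, read out as cell viability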
Description: SANGER: Inhibition of human HCC2157 cell growth in a cell viability assay.

UACC-893 = format: functional, cell-based, Homo sapiens; settings: Homo sapiens, UACC-893
Description: SANGER: Inhibition of human UACC-893 cell growth in a cell viability assay.

SF-539 = format: functional, cell-based, Homo sapiens; settings: Homo sapiens, SF-539;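 note: Read-out is a cell viability assay, with IC50 reflecting inhibition of cell growth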
Description: SANGER: Inhibition of human SF539 cell growth in a cell viability assay.

Daoy = format: functional, cell-based, Homo sapiens; settings: Homo sapiens, Daoy;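 note: daoy cell growth inhibition, read out as cell viability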
Description: SANGER: Inhibition of human Daoy cell growth in a cell viability assay.

SW1710 = format: functional, cell-based, Homo sapiens; settings: Homo sapiens, SW1710;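 note: growth inhibition of SW1710 cells, determined with a cell viability assay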
Description: SANGER: Inhibition of human SW1710 cell growth in a cell viability assay.

CAPAN-1 = format: functional, cell-based, Homo sapiens; settings: Homo sapiens, CAPAN-1;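 note: growth suppression of CAPAN-1 cells, read out by a cell viability assay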
Description: SANGER: Inhibition of human CAPAN-1 cell growth in a cell viability assay.

TE-11 = format: functional, cell-based, Homo sapiens; settings: Homo sapiens, TE-11;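 note: growth inhibition of human TE-11 cells, read out by a cell viability assay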
Description: SANGER: Inhibition of human TE-11 cell growth in a cell viability assay.

UACC-62 = format: functional, cell-based, Homo sapiens; settings: Homo sapiens, UACC-62;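 note: growth inhibition of human UACC-62 cells, read out by a cell viability assay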
Description: SANGER: Inhibition of human UACC-62 cell growth in a cell viability assay.

SW48 = format: functional, cell-based, Homo sapiens; settings: Homo sapiens, SW48;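 note: growth inhibition of SW48 cells, read out with a cell viability assay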
Description: SANGER: Inhibition of human SW48 cell growth in a cell viability assay.

LS-513 = format: functional, cell-based, Homo sapiens; settings: Homo sapiens, LS-513
Description: SANGER: Inhibition of human LS-513 cell growth in a cell viability assay.

639-V = format: functional, cell-based, Homo sapiens; settings: Homo sapiens, 639-V;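 note: growth inhibition of 639-V cells, read out with a cell viability assay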
Description: SANGER: Inhibition of human 639-V cell growth in a cell viability assay.

HLE = format: functional, cell-based, Homo sapiens; settings: Homo sapiens, HLE;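 note: growth inhibition of human HLE cells, read out by a cell viability assay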
Description: SANGER: Inhibition of human HLE cell growth in a cell viability assay.

MEL-HO = format: functional, cell-based, Homo sapiens; settings: Homo sapiens, MEL-HO
Description: SANGER: Inhibition of human MEL-HO cell growth in a cell viability assay.

SK-MEL-1 = format: functional, cell-based; settings: Homo sapiens;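 note: growth inhibition of human SK-MEL-1 cells, read out by a cell viability assay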
Description: SANGER: Inhibition of human SK-MEL-1 cell growth in a cell viability assay.

TGW = format: functional, cell-based; settings: Homo sapiens;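 note: growth inhibition of human TGW cells, read out with a cell viability assay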
Description: SANGER: Inhibition of human TGW cell growth in a cell viability assay.

MZ2-MEL = format: functional, cell-based, Homo sapiens; settings: Homo sapiens, MZ2-MEL;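 note: growth inhibition of MZ2-MEL cells read out with a cell viability assay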
Description: SANGER: Inhibition of human MZ2-MEL cell growth in a cell viability assay.

RMG-I = format: functional, cell-based, Homo sapiens; settings: Homo sapiens, RMG-I;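 note: growth inhibition of human RMG-I cells, read out with a cell viability assay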
Description: SANGER: Inhibition of human RMG-I cell growth in a cell viability assay.

COLO-679 = format: functional, cell-based, Homo sapiens; settings: Homo sapiens, COLO-679
Description: SANGER: Inhibition of human COLO-679 cell growth in a cell viability assay.

JAR = format: functional, cell-based, Homo sapiens; settings: Homo sapiens, JAR;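 note: growth inhibition of human JAR cells determined with a cell viability assay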
Description: SANGER: Inhibition of human JAR cell growth in a cell viability assay.

COC(=O)CNC(=O)C(=O)OC
IC50 (NCI-H727): > 4000 µM | IC50 (T-24): > 4000 µM | IC50 (ETK-1): 525 µM | IC50 (SK-PN-DW): 215 µM | IC50 (EW-1): 977 µM | IC50 (SW684): 2470 µM | IC50 (RERF-LC-MS): 1670 µM | IC50 (NOS-1): 772 µM | IC50 (NUGC-3): 1480 µM | IC50 (SW756): 138 µM | IC50 (HuO-3N1): 701 µM | IC50 (ACHN): 297 µM | IC50 (CAL-54): 1250 µM | IC50 (BCPAP): 209 µM | IC50 (KU-19-19): 1010 µM | IC50 (DEL): 72.3 µM | IC50 (EW-18): 1510 µM | IC50 (MKN-45): > 4000 µM | IC50 (NCI-H1838): > 4000 µM | IC50 (S-117): 3860 µM | IC50 (HEC-1): 954 µM | IC50 (CP50-MEL-B): > 4000 µM | IC50 (DOK): > 4000 µM | IC50 (EW-24): 2290 µM | IC50 (NCI-H226): > 4000 µM | IC50 (RKO): 2460 µM | IC50 (T98G): 666 µM | IC50 (DOHH-2): 281 µM | IC50 (SNU-C2B): > 4000 µM | IC50 (NCI-H510A): 237 µM | IC50 (GCIY): 109 µM | IC50 (L-428): 688 µM | IC50 (SH-4): 2420 µM | IC50 (HCC2157): > 4000 µM | IC50 (UACC-893): > 4000 µM | IC50 (SF-539): 310 µM | IC50 (Daoy): 247 µM | IC50 (SW1710): 277 µM | IC50 (CAPAN-1): 101 µM | IC50 (TE-11): 420 µM | IC50 (UACC-62): > 4000 µM | IC50 (SW48): 1990 µM | IC50 (LS-513): 1850 µM | IC50 (639-V): 1520 µM | IC50 (HLE): 57.7 µM | IC50 (MEL-HO): 3610 µM | IC50 (SK-MEL-1): 2370 µM | IC50 (TGW): > 4000 µM | IC50 (MZ2-MEL): 478 µM | IC50 (RMG-I): 820 µM | IC50 (COLO-679): 157 µM

CC(=O)O[C@@]12CO[C@@H]1C[C@H](O)[C@@]1(C)C(=O)[C@H](O)C3=C(C)[C@@H](OC(=O)[C@H](O)[C@@H](NC(=O)OC(C)(C)C)c4ccccc4)C[C@@](O)([C@@H](OC(=O)c4ccccc4)[C@H]21)C3(C)C [DOCETAXEL]
IC50 (NCI-H727): > 0.01 µM | IC50 (T-24): > 0.01 µM | IC50 (ETK-1): 0.000558 µM | IC50 (SK-PN-DW): 0.00194 µM | IC50 (EW-1): 0.00298 µM | IC50 (SW684): > 0.01 µM | IC50 (RERF-LC-MS): 0.00113 µM | IC50 (NOS-1): > 0.01 µM | IC50 (NUGC-3): 0.00308 µM | IC50 (SW756): 0.00216 µM | IC50 (HuO-3N1): 0.000302 µM | IC50 (ACHN): > 0.01 µM | IC50 (CAL-54): > 0.01 µM | IC50 (BCPAP): 0.000947 µM | IC50 (KU-19-19): > 0.01 µM | IC50 (DEL): 0.00301 µM | IC50 (EW-18): > 0.01 µM | IC50 (MKN-45): 0.00453 µM | IC50 (NCI-H1838): > 0.01 µM | IC50 (S-117): 0.00486 µM | IC50 (HEC-1): 0.00303 µM | IC50 (CP50-MEL-B): 0.00693 µM | IC50 (DOK): 0.00294 µM | IC50 (EW-24): 0.00433 µM | IC50 (NCI-H226): 0.00368 µM | IC50 (RKO): 0.000989 µM | IC50 (T98G): 0.00117 µM | IC50 (DOHH-2): 0.0063 µM | IC50 (SNU-C2B): > 0.01 µM | IC50 (NCI-H510A): 0.000336 µM | IC50 (GCIY): > 0.01 µM | IC50 (JAR): 0.00437 µM | IC50 (L-428): > 0.01 µM | IC50 (SH-4): 0.00322 µM | IC50 (UACC-893): > 0.01 µM | IC50 (SF-539): 0.000302 µM | IC50 (Daoy): 0.0007 µM | IC50 (SW1710): 0.000466 µM | IC50 (CAPAN-1): > 0.01 µM | IC50 (TE-11): 0.000569 µM | IC50 (UACC-62): 0.0033 µM | IC50 (SW48): 0.00101 µM | IC50 (LS-513): > 0.01 µM | IC50 (639-V): 0.000647 µM | IC50 (HLE): 0.00405 µM | IC50 (MEL-HO): > 0.01 µM | IC50 (SK-MEL-1): > 0.01 µM | IC50 (MZ2-MEL): 0.00658 µM | IC50 (RMG-I): > 0.01 µM | IC50 (COLO-679): > 0.01 µM
